Reference: ChEMBL document CHEMBL4699459, “Structure activity study of S-trityl-cysteamine dimethylaminopyridine derivatives as SIRT2 inhibitors: Improvement of SIRT2 binding and inhibition” (Bioorg Med Chem Lett, 2020)

Tests used:
[1] = target: T1, NAD-dependent protein deacetylase sirtuin-2 (Homo sapiens, UniProt Q8IXJ6); test: Inhibition of recombinant SIRT2 (unknown origin) using FAM-labeled RHKK(Ac) LM peptide as substrate incubated for 60 mins by electrophoretic mobility shift assay
T1 sequence (Q8IXJ6 whole entry): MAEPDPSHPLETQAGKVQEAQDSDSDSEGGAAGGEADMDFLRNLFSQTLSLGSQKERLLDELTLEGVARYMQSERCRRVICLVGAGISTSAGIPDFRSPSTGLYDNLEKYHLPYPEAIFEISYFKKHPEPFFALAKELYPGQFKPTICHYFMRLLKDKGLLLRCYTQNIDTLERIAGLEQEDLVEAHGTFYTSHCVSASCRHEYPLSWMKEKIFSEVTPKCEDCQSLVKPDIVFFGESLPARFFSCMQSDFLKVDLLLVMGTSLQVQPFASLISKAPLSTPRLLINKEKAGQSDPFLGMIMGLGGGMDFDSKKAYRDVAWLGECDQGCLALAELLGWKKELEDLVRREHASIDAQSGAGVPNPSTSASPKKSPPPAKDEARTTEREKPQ

[2] = test system: MCF7; test: Antiproliferative activity against human MCF7 cells assessed as reduction in cell proliferation measured after 3 days by MTT assay; type: functional, cell-based; conditions: MCF7, 72 h
[3] = test system: HeLa; test: Antiproliferative activity against human HeLa cells assessed as reduction in cell proliferation measured after 3 days by MTT assay; type: functional, cell-based; conditions: 72 h
[4] = test system: K562; test: Antiproliferative activity against human K562 cells assessed as reduction in cell proliferation measured after 3 days by MTT assay; type: functional, cell-based; conditions: K562, 72 h
[5] = test system: MT2; test: Cytotoxicity against human MT2 cells assessed as reduction in cell proliferation measured after 3 days by MTT assay; type: cell-based; conditions: MT2, 72 h
[6] = test system: HL-60; test: Antiproliferative activity against human HL-60 cells assessed as reduction in cell proliferation measured after 3 days by MTT assay; type: functional, cell-based; conditions: HL-60, 72 h

| SMILES | IC50 [1] [µM] | IC50 [2] [µM] | IC50 [3] [µM] | IC50 [4] [µM] | IC50 [6] [µM] | IC50 [5] [µM] |
| --- | --- | --- | --- | --- | --- | --- |
| c1ccc(C(SCCNCc2ccccn2)(c2ccccc2)c2ccccc2)cc1 | 39.3 | 7.44 | 4.15 | 3.15 | 5.76 | 3.56 |
| CN(C)c1cccc(CNCCSC(c2ccccc2)(c2ccccc2)c2ccccc2)c1 | > 100 |  |  |  |  |  |
| CN(C)c1ccc(CNCCSC(c2ccccc2)(c2ccccc2)c2ccccc2)c(Cl)c1 | > 100 |  |  |  |  |  |
| NCCSC(c1ccccc1)(c1ccccc1)c1ccccc1 | > 100 |  |  |  |  |  |
| COc1cc(N(C)C)ccc1CNCCSC(c1ccccc1)(c1ccccc1)c1ccccc1 | > 100 |  |  |  |  |  |
| CN(C)c1ccnc(C(=O)NCCSC(c2ccccc2)(c2ccccc2)c2ccccc2)c1 | > 100 |  |  |  |  |  |

Further lines, with some results ahead:

| IC50 [1] [µM] | IC50 [2] [µM] | IC50 [3] [µM] | IC50 [4] [µM] | IC50 [6] [µM] | SMILES | IC50 [5] [µM] |
| --- | --- | --- | --- | --- | --- | --- |
| 7.6 | 4.97 | 1.32 | 1.11 | 2.68 | CCN(CC)c1ccnc(CNCCSC(c2ccccc2)(c2ccccc2)c2ccccc2)c1 | 2.22 |
| > 100 |  |  |  |  | CN(C)c1ccnc(CNCCSC(C)(C)C)c1 |  |
| > 100 |  |  |  |  | CN(C)c1ccnc(CNCCS)c1 |  |
| 10.8 | 3.16 | 1.56 | 2.17 | 0.45 | COC(=O)[C@@H](CSC(c1ccccc1)(c1ccccc1)c1ccccc1)NCc1cc(N(C)C)ccn1 | 3.15 |
| 7.5 | 5.1 | 2.25 | 2.44 | 1.87 | CN(C)c1ccnc(CNCCSC(c2ccccc2)(c2ccccc2)c2ccccc2)c1 | 3.16 |
